In patent US10913788B2, “Pharmaceutical composition for preventing or treating dry eyes” (EYEBIO KOREA, priority 2015, dated 2021):

Key:
Type in all cases: in vivo
[1] = tested on: conjunctival goblet cells; test: Distribution of conjunctival goblet cells (PAS stain) in dry eye mice; settings: instillation after removal of desiccation stress, p<0.05; for conjunctival goblet cells: desiccation stress 7.43±1.52
Method: (§1) NOD.B10.H2^b mice were purchased from Jackson Laboratory (Bar Harbor, Me., USA). Experiments on animals were performed according to the guidelines for animal experiments of Inje University College of Medicine (No.; 2014-029) and the ARVO statement for the use of animals in ophthalmic and vision research. 12-to-16-week-old NOD.B10.H2^b mice underwent desiccation stress as being exposed to an air draft from a fan at an ambient humidity of about 40% to 50% for 18 hours per day, and then, were subjected to subcutaneous injection of 0.5 mg/0.2 mL of muscarinic receptor blockers. Also, the mice were injected with scopolamine hydrobromide (Sigma-Aldrich, St. Louis, Mo.) alternatively on hindquarters 4 times per day (9 AM, 12 PM, 3 PM, and 6 PM) for 10 days. During these experiments, behaviors and food and water intakes of the mice were not restricted. 10 days later, the mice were euthanized.
(§2) 10 days after the mice underwent desiccation stress, the scopolamine injection was halted, and then, the mice newly had environments with normal humidity and temperature. After the desiccation stress was removed, the mice were divided into a peptide I group or a peptide II group, wherein 10 mg/ml of peptide I or 10 mg/ml of peptide II was dissolved in PBS and 5 μL of PBS was instilled into eyeballs of the mice 5 times per day for 10 days. In addition, 5 μL of PBS or 5 μL of 0.1% HA were instilled into eyeballs of the mice in a control group, i.e., a PBS group or a hyaluni (HA) group, 5 times a day for 10 days. In each group, both eyes of each of 5 mice were used to conduct the experiments in a repetitive manner.
The eyes and adnexa of the mice in the control groups (i.e., the PBS group and the HA group) and the experimental groups (i.e., the peptide I group and the peptide II group) were surgically excised, fixed in 10% formalin, and embedded in paraffin and an OCT compound.
6 μm sections of the tissue samples were stained with haematoxylin and eosin (H&E) and periodic acid-Schiff (PAS) reagent.
5 animals in each group were subjected to the staining as described above, and then, were examined and photographed with a virtual microscope (NanoZoomer 2.0 RS, Hamamatsu, Japan).
The distribution of the conjunctival goblet cells in the dry eye mice were observed following peptide I, peptide II, and HA instillation.

[2] = tested on: TNF-α, ICAM-1, VCAM-1, MMP-2, and MMP-9; test: Immunohistochemical analysis of inflammatory markers in conjunctiva of dry eye mice; settings: instillation for 10 days after removal of desiccation stress
Method: as §1
(§3) 10 days after the mice underwent desiccation stress, the scopolamine injection was halted, and then, the mice newly had environments with normal humidity and temperature. After the desiccation stress was removed, the mice were divided into a peptide I group or a peptide II group, wherein 10 mg/ml of peptide I or 10 mg/ml of peptide II was dissolved in PBS and 5 μL of PBS was instilled into eyeballs of the mice 5 times per day for 10 days. […]

NOD.B10.H2^b mice = test: Tear production measured with phenol red-impregnated cotton threads in dry eye mice after removal of desiccation stress; settings: for increased tear production compared to the control group (PBS group): 10 mg/ml in PBS, 5 μL instilled into eyeballs 5 times per day, up to 10 days after removal of desiccation stress, p<0.05; for tear production / tear volume, result in words: eye instillation 5 times per day for 10 days after removal of desiccation stress, 0.1% HA
Method: as §1, §2
Extents of tear production were measured with phenol red-impregnated cotton threads (Zone-Quick; Oasis, Glendora, Calif.), as previously described (Villareal A L, Farley W, Pflugfelder S C. Effect of topical ophthalmic epinastine and olopatadine on tear volume in mice. Eye Contact Lens. 2006; 32(6):272-276). The threads were held medical tweezers and placed in the lateral canthus for 20 seconds. The tear volumes were expressed as millimeter (mm) of wet thread that had been turned red by the tears, as measured under a microscope (SZX7; Olympus corp, Tokyo, Japan).
The tear fluid uptakes measured in millimeters were compared to a standard curve that was prepared from cotton threads with known uptake volumes of a stock basic solution ([…] of 0.9% saline and 5 mL of 5 N NaOH) over 20 seconds that were within the range that would be expected for mouse tears.

corneal epithelial cells = test: Detachment of corneal epithelial cells (H&E stain) in dry eye mice; settings: instillation for 10 days after removal of desiccation stress
Method: as §1, §3

Substance	conjunctival goblet cells [1] [cells/0.1 mm^2]	increase of conjunctival goblet cells that were decreased by desiccation stress [1]	expression of inflammatory markers (TNF-α, ICAM-1, VCAM-1, MMP-2, MMP-9) in the conjunctiva, result in words [2]	increased tear production compared to the control group (PBS group) (NOD.B10.H2^b mice)	tear production / tear volume, result in words (NOD.B10.H2^b mice)	number of detached corneal epithelial cells (corneal epithelial cells; DS 10D 2.29±0.61, PBS 1.43±0.34)	decrease of detachment of corneal epithelial cells compared to the control groups (corneal epithelial cells)
GDRGD [peptide I, collagen type I α1 based peptide GDRGD]	13.3 ± 2.41	about 1.8 fold	significantly decreased	about 2.52 fold	recovering the tear volumes up to normal tear volumes	about 0.19±0.14 /0.1 mm^2	–
GQDGLAGPK [peptide II, collagen type II α1 based peptide …]	12.1 ± 1.11	about 1.63 fold	significantly decreased	about 2.52 fold	recovering the tear volumes up to normal tear volumes	–	about 4 fold
